Measurements reported in patent US6849607B2, “Galectin recognized photosensitizers for photodynamic therapy” (Health Research, Inc., priority 2001, dated 2005).
Where “and” joins values, the source holds several entries; their conditions need not be identical. Identical values can stand only once.

How the values were obtained:
[1] = tested on: RIF tumor cells; experiment: Cellular localization in RIF tumor cells with DPH counterstain; assay type: cell-based; conditions: RIF cells (FIGS. 9a and 9b)
Procedure: For investigating the difference in sites of localization between the photosensitizers with and without carbohydrate moieties, the fluorescence light microscopy experiments were performed in Molt-4 and RIF tumor cell lines. In a typical experiment, cells were imaged at 100× on an inverted fluorescence microscope (Carl Zeiss Inc. Axiovert 35.W.Germany) with a charged-coupled device camera (Dage-MTI, model 104722-02). Images were captured and processed by computer using Image-1 image processing software (Universal Imaging Corp., version 4.0, WestChester, Pa.). The photosensitizer fluorescence was assessed by using 530-585 nm excitation and 615 nm long-pass filter to measure emission while 338-378 nm excitation for DPH, and a 450 nm emission filter for emission (400 nm dichroic). […] In addition, […]1-(4-trimethylammonium)-6-phenyl-1,3,5-hexatriene (TMA-DPH), a hydrophobic fluorescent probe which interacts with living cells by instantaneous incorporation into plasma membrane and becomes fluorescent (Illinger, D., and Kuhry, J. G., The Kinetic Aspects of Intracellular Fluorescence Labeling with TMA-DPH Support the Maturation Model for Endocytosis in L929 Cells, The Journal of Cell Biology, 125:783-794, 1994), was added for the last 5 min of the incubation, cells were washed once with PBS and transferred to a microscope slide for imaging. […]

[2] = tested on: Molt-4 human leukemic T-cells; experiment: In vitro photosensitizing efficacy in Molt-4 cells (MTT); assay type: cell-based; conditions: Molt-4 cells; for effect of free lactose on PDT efficacy of the photosensitizer: photosensitizer with lactose in a ratio of 1:100, without washing
Procedure: Both cell lines are known to have some expression for Galectin-1 ([…]., Baum, L. G. and Brewer, C. F., Multivalent Protein-carbohydrate Interactions. A New […] for Super Molecular Assembly and Signal Transduction, Biochemistry, 40:3009-3015, 2001). The Molt-4 cells were grown in RPMI 1640 5% FCS (Fetal calf serum) in 100% humidity with 5% CO2. Cells were transferred to phenol red free (PRF) RPMI 1640 media with 1% FCS and plated at 2.5×10^4 cells/well. After 3 hours incubation in the dark, the cells were washed once with PBS and re-suspended in prf RPMI 1640 with 1% FCS. These cells were then illuminated with a […] Quartz Halogen Lamp with IR and bandpass dichroic filters to allow light between 400 nm-700 nm, at a dose rate of 16 mW/cm^2 at 695 nm. The RIF tumor cells were grown in alpha-DMEM with 10% fetal calf serum, penicillin and streptomycin. Cells were maintained in 5% CO2, 95% air and 100% humidity. […] After overnight incubation to allow the cells to attach the photosensitizers 14 were individually added at variable concentrations. After a 3 hr incubation in the dark at 37° C., the cells were washed once with PBS, then irradiated with the same light source as above (Molt-4 procedure), and the optimal cell kill was obtained at a concentration of 1.0 μM. After PDT the cells were washed once and placed in complete media and incubated for 48 hrs. […] Louis, Mo.) was added to each well (Kessel, D., Luo, Y., Photodynamic Therapy: A Mitochondrial Inducer of Apoptosis, Cell Death Differ. 6:28-35, 1999; MacDonald, I., Morgan, […]., Litchfield, D. J. Dougherty, T. J., Subcellular Localization Patterns and their Relationship to Photodynamic Activity of Pyropheophorbide-a Derivatives, Photochem. Photobiol., 70, 789-997, 1999). After 4 hr incubation at 37° C. the MTT+media were removed and 100 μl DMSO was added to solubilize the formazin crystals. The 96-well plate was read on a microtiter plate reader (Miles Inc. Titertek Multiscan Plus MK II) at an absorbance of 560 nm. The results were plotted as percent survival of the corresponding dark (drug no light) control for each compound tested. Each data point represents the mean from 3 separate experiments, and the error bars are the standard deviation. Each experiment was done with 5 replicate wells. […] The cells were then washed once with phosphate buffer saline (PBS), carbohydrate conjugates were then added, and the cells were again incubated for an additional 3 hrs. After treating with light, the cells were re-suspended in fresh media and incubated for 48 hrs. MTT was added to the cells and incubated for an additional 4 hrs. Dimethylsulfoxide (100 μl) was then added to each well to dissolve the formazin crystals. The plates were read on a 96 well plate reader at an absorbance of 560 nm. The data are in replicates of 6 wells and are normalized to control cells (light, no drug). In another set of experiments, a similar procedure was followed, except, the cells were not washed before the light treatment. […] Louis, Mo.) was added to the cells and incubated for an additional 4 hrs. Dimethylsulfoxide (100 μl) was then added to each well to dissolve the formazin crystals. The plates were read on a 96 well plate reader (Miles Inc. Titertek Multiscan Plus MK II) at an absorbance of 560 nm. The data are in replicates of 6 wells and are normalized to control cells (light, no drug).

[3] = molecular target: Gal-1 (Homo sapiens, UniProt P09382); experiment: Gal-1 inhibition binding, indirect ELISA (Gal-1-HRP conjugate on asialofetuin-coated wells)
Chain of Gal-1 (P09382 whole entry): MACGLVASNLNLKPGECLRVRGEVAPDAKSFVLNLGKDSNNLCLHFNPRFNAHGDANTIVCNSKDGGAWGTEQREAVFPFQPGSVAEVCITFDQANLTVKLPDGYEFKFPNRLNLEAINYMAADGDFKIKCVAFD
Procedure: Cell. Biochem., 43, 43-57, 1990) to eliminate the thiol requirement for retention of carbohydrate-binding activity. Coupling of alkylated galaptin to Horseradish peroxidase (HRP) was carried out by a two-step glutaraldehyde procedure as described by Engvall (Engvall E., Enzyme Immunoassay ELISA and EMIT, Methods in Enzymology, 70, 419-439, 1980). The galactin-peroxidase conjugate was prepared in 50% glycerol-1% BSA and stored at -20° C. until use. The binding of the Gal-1 to photosensitizers with and without the galactose moiety was measured by an indirect ELISA method as described by Chen et al. […] The microtiter wells (Dynatech Laboratories, Chantilly, Va.) were coated with 2 μg asial fetuin (Sigma) in 100 μl of 0.1M sodium carbonate, 0.2% NaN3, pH 9.6 at 37° C. for 3h. The plates were tightly covered with parafilm and stored at 4° C. for use within three weeks. The optimal dilution for Gal-1HRP conjugate was determined by checker-board titration. For studying the effect of saccharides and their conjugates, 60 μl aliquots of diluted Gal-1-HRP conjugate containing 1.4 μg of Gal-1 were mixed separately in duplicate with 60 μl dilute buffer as well as serially diluted test compounds and incubated for 1 h at 37° C. A 100 μl aliquot was transferred to the microtiter wells, which had been coated with […] Fetuin, blocked and washed. The plates were then incubated for 1 h at 37° C. followed by color development with ABTS (Kirkegaard & Perry lab. Gaithersburg, Md.) and reading at 405 nm on an ELISA reader.

Compound | cellular localization with DPH as a counterstain [1] | in vitro photosensitizing efficacy (in words) ([2]; 2.0 μM, 2a, 3a compared to 1a, 4a compared to 2a and 3a) | effect of free lactose on PDT efficacy of the photosensitizer [2] | increase in I50 inhibition binding affinity compared to the galactose conjugate 2 [3] [fold] | IC50 ([3]; ELISA, read-out: I50, inhibition of Gal-1 binding) | inhibition at 450 µM ([3]; at 450 μM) [%] | inhibition of Gal-1 binding ([3]; at 450 μM) [%]
C=C(C=CCO[C@@H]1O[C@H](CO)[C@@H](O[C@@H]2O[C@H](CO)[C@H](O)[C@H](O)[C@H]2O)[C@H](O)[C@H]1O)CN1C(=O)c2c3nc(cc4[nH]c(cc5nc(cc6[nH]c2c(c6C)C1=O)C(CC)=C5C)c(CC)c4C)C(C)C3CCC(=O)OC (mixture of isomers) [4a, Lactose-Chlorin conjugate joined with diene linkage] | intense plasma membrane fluorescence | better pbotosensitizer | complete inhibition in PDT efficacy | 40 | 540 nM and 500 nM | 29 | –
Mesopurpurin-18-N-methyl-(2′-butadiene)imide [1a] | diffuse intracellular localization | – | did not produce any change in photocytotoxic ability | – | – | – | 29
